Like-named read-outs stand apart in the source and are kept apart here.

One experiment concerns the target T1, Drosophila OR13a (Drosophila melanogaster, UniProt Q9VXL0).
T1 construct: expressed in transfected cells
T1 sequence (Q9VXL0 1-418): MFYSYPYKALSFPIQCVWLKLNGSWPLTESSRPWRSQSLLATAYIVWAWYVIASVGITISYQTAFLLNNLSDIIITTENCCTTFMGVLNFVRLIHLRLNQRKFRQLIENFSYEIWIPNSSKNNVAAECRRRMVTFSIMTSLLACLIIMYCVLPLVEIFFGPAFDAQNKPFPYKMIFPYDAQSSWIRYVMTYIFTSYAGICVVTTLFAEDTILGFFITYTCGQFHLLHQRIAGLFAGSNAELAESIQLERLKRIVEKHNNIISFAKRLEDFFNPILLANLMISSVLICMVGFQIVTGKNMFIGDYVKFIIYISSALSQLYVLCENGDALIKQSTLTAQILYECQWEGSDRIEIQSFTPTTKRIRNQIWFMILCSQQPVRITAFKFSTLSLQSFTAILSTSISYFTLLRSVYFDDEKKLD
T1 sequence (Q9VNB5 1-486 partner): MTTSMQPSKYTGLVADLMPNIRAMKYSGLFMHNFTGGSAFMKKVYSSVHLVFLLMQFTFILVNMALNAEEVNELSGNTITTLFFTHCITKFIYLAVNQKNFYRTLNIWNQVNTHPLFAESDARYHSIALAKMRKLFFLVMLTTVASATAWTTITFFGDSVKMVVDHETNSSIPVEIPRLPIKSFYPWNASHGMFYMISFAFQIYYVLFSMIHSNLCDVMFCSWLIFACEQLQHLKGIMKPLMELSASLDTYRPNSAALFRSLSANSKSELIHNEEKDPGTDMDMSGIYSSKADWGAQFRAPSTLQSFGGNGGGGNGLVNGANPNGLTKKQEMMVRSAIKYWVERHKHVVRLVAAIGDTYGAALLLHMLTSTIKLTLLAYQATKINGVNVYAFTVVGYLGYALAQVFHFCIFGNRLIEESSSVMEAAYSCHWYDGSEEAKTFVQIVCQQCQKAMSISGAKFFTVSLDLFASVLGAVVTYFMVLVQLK
The experiment is described as follows: Calcium ion fluorescence (GCaMP6) assay, OR13a stable HEK293 cell line. The conditions noted are these: for OR13a response (VUAA1-normalized) at 1 μM / OR13a response (VUAA1-normalized) at 10 μM / OR13a response (VUAA1-normalized) at 100 μM: OR13a cell line. It counts as cell-based. In a few lines:
(§1)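 HEK293 lines stably expressing each Drosophila OR with GCaMP6, doxycycline-induced (1 μg/mL) 48 or 72 h. Fluorescence recorded 5 s baseline then 30 s after VOC injection at pH 7.3; ΔF=(FMAX−F0)/F0, normalized to 50 µM VUAA1 response per line, triplicate wells averaged; concentration series 0.01–100 μM.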

In a further experiment the target is T2, Drosophila OR98a (Drosophila melanogaster, UniProt Q9VAZ3).
T2 construct: expressed in transfected cells
T2 sequence (Q9VAZ3 1-397): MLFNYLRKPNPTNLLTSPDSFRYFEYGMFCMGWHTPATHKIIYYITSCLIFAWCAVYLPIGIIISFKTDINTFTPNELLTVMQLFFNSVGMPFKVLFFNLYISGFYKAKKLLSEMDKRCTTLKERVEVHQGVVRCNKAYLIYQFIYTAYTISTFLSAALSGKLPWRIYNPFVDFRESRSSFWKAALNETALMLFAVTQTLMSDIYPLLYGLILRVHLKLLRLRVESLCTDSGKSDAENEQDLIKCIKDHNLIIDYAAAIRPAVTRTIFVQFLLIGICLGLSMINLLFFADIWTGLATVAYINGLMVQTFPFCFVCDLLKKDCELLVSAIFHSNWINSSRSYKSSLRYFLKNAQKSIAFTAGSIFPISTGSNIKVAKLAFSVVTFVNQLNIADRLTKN
T2 sequence (Q9VNB5 1-486 partner): T1 sequence (Q9VNB5 1-486 partner)
The experiment can be described thus: Calcium ion fluorescence (GCaMP6) assay, OR98a stable HEK293 cell line. The conditions noted are these: for OR98a response (VUAA1-normalized) at 1 μM / OR98a response (VUAA1-normalized) at 10 μM / OR98a response (VUAA1-normalized) at 100 μM / Average response: OR98a cell line; for Average response: average of biological replicates, fraction of VUAA1 response. It is filed as cell-based. In a few lines:
as §1

Setting [1] is: HEK293, read-out: OR13a Average response (VUAA1-normalized), 1 μM VOC, 50 μM VUAA1 = 1, responses not exceeding 0.05 considered 0.
Where [2] appears, read: HEK293, read-out: OR13a Average response (VUAA1-normalized), 10 μM VOC, 50 μM VUAA1 = 1, responses not exceeding 0.05 considered 0.
The mark [3] stands for this setting: HEK293, read-out: OR13a Average response (VUAA1-normalized), 100 μM VOC, 50 μM VUAA1 = 1, responses not exceeding 0.05 considered 0.
Setting [4] is: ligand concentration 1 (unit not given), threshold 0.05, below shown as 0.
[5] abbreviates: ligand concentration 10 (unit not given), threshold 0.05, below shown as 0.
[6] abbreviates: ligand concentration 100 (unit not given), threshold 0.05, below shown as 0.
The mark [7] stands for this setting: HEK293, read-out: Average response.
Where [8] appears, read: HEK293, read-out: OR98a Average response (VUAA1-normalized).
The mark [9] stands for this setting: concentration 1, normalized fluorescence change, values below 0.05 threshold given as 0.
[10] abbreviates: concentration 10, normalized fluorescence change, values below 0.05 threshold given as 0.
[11] abbreviates: concentration 100, normalized fluorescence change, values below 0.05 threshold given as 0.
The mark [12] stands for this setting: HEK293, read-out: OR98a response (VUAA1-normalized response).

Consider `CCCOC(C)=O` [propyl acetate], for which the activation at 1 µM at Drosophila OR13a (setting [1]) is 0%; at Drosophila OR98a (setting [7]) it was 10%; at Drosophila OR98a (setting [8]) it was 10%. Further, the results for the activation at 10 µM at Drosophila OR13a (setting [2]), on Drosophila OR98a (setting [7]) and at Drosophila OR98a (setting [8]) were 0%, 8% and 8%, respectively. The activation at 100 µM was 0% at Drosophila OR13a (setting [3]), 11% on Drosophila OR98a (setting [7]) and 11% at Drosophila OR98a (setting [8]). In addition, at Drosophila OR13a (VOC concentration 1 μM), the “OR13a response (VUAA1-normalized) at 1 μM” value is 0.00. The “OR13a response (VUAA1-normalized) at 10 μM” value at Drosophila OR13a (VOC concentration 10 μM) was determined as 0.00. For the same molecule, the “OR13a response (VUAA1-normalized) at 100 μM” value on Drosophila OR13a (VOC concentration 100 μM) came out at 0.00. In addition, the “DF norm AVERAGE OR13a” value on Drosophila OR13a (setting [4]), on Drosophila OR13a (setting [5]) and at Drosophila OR13a (setting [6]) was 0 throughout. For the same molecule, the “OR98a response (VUAA1-normalized) at 1 μM” value at Drosophila OR98a (VOC concentration 1 μM) came out at 0.10. The “OR98a response (VUAA1-normalized) at 10 μM” value on Drosophila OR98a (VOC concentration 10 μM) came to 0.08. The “OR98a response (VUAA1-normalized) at 100 μM” value at Drosophila OR98a (VOC concentration 100 μM) is recorded as 0.11. In addition, the “DF norm AVERAGE OR98a” value at Drosophila OR98a (setting [4]) is 0.09538; on Drosophila OR98a (setting [5]) it was 0.07848; on Drosophila OR98a (setting [6]) it was 0.1069.

In the case of `C=C(C)[C@H]1CC=C(C)CC1` [(R)-(+)-limonene], the “OR13a Average response (VUAA1-normalized)” value at Drosophila OR13a (1 μM VOC, 50 μM VUAA1 = 1, responses not exceeding 0.05 considered 0) was 0.00; on Drosophila OR13a (10 μM VOC, 50 μM VUAA1 = 1, responses not exceeding 0.05 considered 0), 0.0429; at Drosophila OR13a (100 μM VOC, 50 μM VUAA1 = 1, responses not exceeding 0.05 considered 0) it was 0.0285. In addition, the “OR13a response (VUAA1-normalized response)” value at Drosophila OR13a (VOC concentration 1 μM), on Drosophila OR13a (VOC concentration 10 μM) and at Drosophila OR13a (VOC concentration 100 μM) was 0.00 in each case. The “DF norm AVERAGE OR13a” value at Drosophila OR13a (setting [9]), on Drosophila OR13a (setting [10]) and on Drosophila OR13a (setting [11]) was 0 in each case. The “OR98a response (VUAA1-normalized response)” value on Drosophila OR98a (VOC concentration 1 μM), at Drosophila OR98a (VOC concentration 10 μM) and on Drosophila OR98a (VOC concentration 100 μM) was 0.00 throughout. In addition, the Average response on Drosophila OR98a (cc. 1 µM) was 0.03; on Drosophila OR98a (cc. 10 µM), 0.00; on Drosophila OR98a (cc. 100 µM) it was 0.03. Further, the “DF norm AVERAGE OR98a” value at Drosophila OR98a (setting [9]), on Drosophila OR98a (setting [10]) and on Drosophila OR98a (setting [11]) was 0 in each case.

With `CCCCCC(=O)CC` [3-octanone], the activation at 1 µM on Drosophila OR13a (setting [1]) stood at 0%; at Drosophila OR13a (HEK293, read-out: OR13a response (VUAA1-normalized response), VOC concentration 1 μM) it was 0%; on Drosophila OR98a (setting [7]), 0%; on Drosophila OR98a (setting [8]), 0%; at Drosophila OR98a (setting [12]) it was 0%. Besides, the activation at 10 µM on Drosophila OR13a (setting [2]) came to 0%; at Drosophila OR13a (HEK293, read-out: OR13a response (VUAA1-normalized response), VOC concentration 10 μM), 0%; on Drosophila OR98a (setting [7]), 0%; at Drosophila OR98a (setting [8]), 0%; at Drosophila OR98a (setting [12]), 0%. Further, the activation at 100 µM on Drosophila OR13a (setting [3]) was 2.55%; at Drosophila OR13a (HEK293, read-out: OR13a response (VUAA1-normalized response), VOC concentration 100 μM), 0%; at Drosophila OR98a (setting [7]), 16%; at Drosophila OR98a (setting [8]), 16%; on Drosophila OR98a (setting [12]), 16%. In addition, the “DF norm AVERAGE OR13a” value at Drosophila OR13a (setting [9]), on Drosophila OR13a (setting [10]) and at Drosophila OR13a (setting [11]) was 0 each time. Further, the “DF norm AVERAGE OR98a” value on Drosophila OR98a (setting [9]) is given as 0; at Drosophila OR98a (setting [10]) it was 0; on Drosophila OR98a (setting [11]) it was 0.1573.

On to `Cc1ccc(C)cc1` [p-xylene], for which the activation at 1 µM on Drosophila OR13a (setting [1]) and on Drosophila OR98a (setting [7]) was 0% each time. In addition, the activation at 10 µM was determined as 0% at Drosophila OR13a (setting [2]) and 2.51% on Drosophila OR98a (setting [7]). The results for the activation at 100 µM on Drosophila OR13a (setting [3]) and on Drosophila OR98a (setting [7]) were 2.5% and 4%, respectively. Besides, the “OR13a response (VUAA1-normalized) at 1 μM” value at Drosophila OR13a (VOC concentration 1 μM) is reported as 0.00. Also, at Drosophila OR13a (VOC concentration 10 μM), the “OR13a response (VUAA1-normalized) at 10 μM” value is 0.00. Moreover, on Drosophila OR13a (VOC concentration 100 μM), the “OR13a response (VUAA1-normalized) at 100 μM” value came out at 0.00. The “DF norm AVERAGE OR13a” value at Drosophila OR13a (setting [4]), on Drosophila OR13a (setting [5]) and on Drosophila OR13a (setting [6]) was 0 in each case. Also, at Drosophila OR98a (VOC concentration 1 μM), the “OR98a response (VUAA1-normalized) at 1 μM” value is listed as 0.00. Further, the “OR98a response (VUAA1-normalized) at 10 μM” value on Drosophila OR98a (VOC concentration 10 μM) came out at 0.00. In addition, the “OR98a response (VUAA1-normalized) at 100 μM” value on Drosophila OR98a (VOC concentration 100 μM) was 0.00. Further, the “DF norm AVERAGE OR98a” value at Drosophila OR98a (setting [4]), at Drosophila OR98a (setting [5]) and on Drosophila OR98a (setting [6]) was 0 each time.
